Measurements from patent US20220273679A1, “METHODS AND COMPOSITIONS FOR TREATING AND PREVENTING DAMAGE TO SKIN” (New York Society for the Relief of the Ruptured and …, priority 2019, published 2022).

How the values were obtained:
[1] = system: Primary murine keratinocytes; test: Mouse keratinocyte-LC co-culture exposed to UVR (activated caspase-3+ keratinocytes); format: cell-based; settings: keratinocytes pre-treated with 2 μM for 30 minutes before LC co-culture and UVR
Method: FIGS. 13A and 13B. Effect of human LCs on human keratinocytes without UVR and further characterization of in vitro LC-keratinocyte EGFR signaling (13A) Effect of human LCs on human keratinocytes without UVR. Primary human keratinocytes were co-cultured with or without human LCs and activated caspase-3+ keratinocytes were enumerated 24 hours later (n=3 human LC donors). Validation of siRNA-mediated EGFR knockdown in primary murine keratinocytes was performed. Keratinocytes were treated with control or EGFR-targeted siRNAs (#1 and #2) and EGFR expression was measured 5 days later (on the day of UVR exposure) by flow cytometry. […]
For immunofluorescence staining of cell culture experiments, polystyrene chamber slides (Lab-Tek) with cultured keratinocytes were washed with PBS, fixed with 4% paraformaldehyde for 20 minutes, permeabilized and blocked with Triton-X (0.2%) and BSA (1%), and stained as indicated. Activated caspase-3+ and total DAPI+ cells were quantified with ImageJ software by a blinded observer and the percent of activated caspase-3+ Langerin− cells (keratinocytes) and activated caspase-3+ Langerin+ cells (LCs) was calculated.
Primary mouse keratinocyte cultures were prepared from mouse tail skin as described (23). […] The co-cultures rested overnight and were then exposed to UVR and analyzed 24 hours later. […]

WT mice = test: UVR-induced keratinocyte apoptosis and skin injury in WT mice treated topically before UVR; format: in vivo, mouse; settings: 4 mM topically prior to UVR, FIGS. 12B-12E
ADAM17 [2] = test: Ex vivo ADAM17 activity assay by TNFR1 cleavage, sorted murine LCs; format: cell-based, mouse; settings: 25 ng/mL, 45 minutes
Method: FIGS. 6A-6D. UVR directly activates LC ADAM17 and EGFR ligand release. (6A, 6B) Effect of UVR on ADAM17 activity in sorted murine (6A) and human (6B) LCs as measured by change in TNFR1 mean fluorescence intensity (MFI) 45 minutes after the indicated treatments. PMA is a positive control. (n=5-6 mice; n=4 human donors). (6C,6D) Conditioned supernatants from murine (6C) or human LCs (6D) were added to A431 EGFR indicator cells and phosphoEGFR was measured 10 minutes later by flow cytometry. Murine LC supernatants were from (6A); human LC supernatants were from cells treated similarly to (6B), except that antibody was washed out prior to UVR (see Example 8). Left: Representative histogram. Right: Quantification relative to cells treated with control WT LC supernatants (6C) or control IgG-treated LC supernatants (6D). […]
To measure ADAM17 activity, we quantified the level of cell-surface tumor necrosis factor receptor 1 (TNFR1), a substrate for ADAM17 (31). […]
Sorted mouse LCs were plated in a 96-well plate at 20,000-25,000 cells/well in RPMI 1640 supplemented with L-glutamine, penicillin/streptomycin, and HEPES buffer. The cells were treated with phorbol 12-myristate 13-acetate (PMA) (Sigma-Aldrich) at 25 ng/mL or UVR (500 J/m2) and analyzed 45 minutes later. […] ADAM17 activity is expressed as the percent change in TNFR1 mean fluorescence intensity (MFI) relative to that of untreated LCs. […]

ADAM17 [3] = settings: mouse embryonic fibroblasts; cited from earlier work
epithelial wound healing = settings: used at 0.1 μg/ml; cited from earlier work

C=CC(=O)Nc1ccc2ncnc(Nc3cccc(Br)c3)c2c1 [PD168393]
protective effect of LCs against UVR-induced keratinocyte apoptosis [1]: abolished the protective effect of LCs
UVR-induced keratinocyte apoptosis and skin injury (WT mice): increased

CCCCCCCCCCCCCC(=O)O[C@@H]1[C@@H](C)[C@@]2(O)[C@@H](C=C(CO)C[C@]3(O)C(=O)C(C)=C[C@@H]23)[C@@H]2C(C)(C)[C@]12OC(C)=O [PMA, phorbol 12-myristate 13-acetate]
LC cell-surface TNFR1 (ADAM17 activity) (ADAM17 [2]): reduced

Lysophosphatidic acid [LPA, reference compound]
ADAM17 activation (ADAM17 [3]): activated

TGFα: EGFR ligand
epithelial wound healing (epithelial wound healing): enhance

TNFα
ADAM17 activation (ADAM17 [3]): activated

Thrombin
ADAM17 activation (ADAM17 [3]): activated
